Laboratory results: article PMC12715756 (ACS Chemical Neuroscience, 2025)
Like-named read-outs stand apart in the source and are kept apart here.

Tests used:
[1] = Metabolic stability, substrate depletion in pooled human liver microsomes; details: for CLint scaled at 0.5 μM / half-life at 0.5 μM / microsomal CLint at 0.5 μM: human, pooled human liver microsomes; for clearance classification: pHLM
5-HT2A = target: T1, 5-HT2A (Homo sapiens, UniProt P28223); experiment: Gq dissociation BRET assay in HEK293T cells; assay type: cell-based; details: for Emax ± SEM, %5-HT response 5-HT2A / EC50: Gq dissociation BRET; for Emax ± SEM, %5-HT response 5-HT2A: relative to 5-HT
T1 construct: expressed in transfected cells; host or cells: HEK293T (ATCC; RRID:CVCL_0063), transient transfection
T1 sequence (P28223 whole entry): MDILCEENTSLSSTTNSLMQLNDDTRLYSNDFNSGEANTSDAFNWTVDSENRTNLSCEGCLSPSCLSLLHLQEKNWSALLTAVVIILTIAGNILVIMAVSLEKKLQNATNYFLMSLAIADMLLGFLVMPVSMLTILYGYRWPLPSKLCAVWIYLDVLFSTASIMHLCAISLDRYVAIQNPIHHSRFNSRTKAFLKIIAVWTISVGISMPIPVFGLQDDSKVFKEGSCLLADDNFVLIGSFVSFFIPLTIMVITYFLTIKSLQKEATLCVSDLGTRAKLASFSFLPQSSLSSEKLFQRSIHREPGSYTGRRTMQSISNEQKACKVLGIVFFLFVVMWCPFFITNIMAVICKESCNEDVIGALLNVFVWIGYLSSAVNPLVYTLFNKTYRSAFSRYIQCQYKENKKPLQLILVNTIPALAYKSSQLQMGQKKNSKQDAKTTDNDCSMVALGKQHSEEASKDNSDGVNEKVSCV

DAT = DAT (Homo sapiens, UniProt Q01959); details: for DAT/SERT ratio (EC50): efflux assays
DAT, sequence (Q01959 whole entry, the tested form may be a part): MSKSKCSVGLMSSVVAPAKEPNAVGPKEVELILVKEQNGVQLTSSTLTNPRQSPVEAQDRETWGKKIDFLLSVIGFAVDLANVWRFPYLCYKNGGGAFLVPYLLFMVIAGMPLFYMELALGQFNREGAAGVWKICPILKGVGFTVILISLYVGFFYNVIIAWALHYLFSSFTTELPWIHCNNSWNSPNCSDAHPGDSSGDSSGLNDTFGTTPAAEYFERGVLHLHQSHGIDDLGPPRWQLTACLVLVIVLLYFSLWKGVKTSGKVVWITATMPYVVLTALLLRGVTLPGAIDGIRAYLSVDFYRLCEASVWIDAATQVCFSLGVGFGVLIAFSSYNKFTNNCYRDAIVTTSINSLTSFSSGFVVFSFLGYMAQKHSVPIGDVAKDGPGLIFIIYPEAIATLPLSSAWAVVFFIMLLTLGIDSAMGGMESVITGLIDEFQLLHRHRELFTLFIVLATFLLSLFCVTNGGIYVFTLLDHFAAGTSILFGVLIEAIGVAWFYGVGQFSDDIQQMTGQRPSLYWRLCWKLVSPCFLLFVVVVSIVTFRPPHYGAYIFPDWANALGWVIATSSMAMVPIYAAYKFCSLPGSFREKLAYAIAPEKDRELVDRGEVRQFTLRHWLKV

NET = NET (Homo sapiens, UniProt P23975); experiment: Release (superfusion) assay, NET mediated [3H]MPP+ release; details: for Emax: read-out: Emax [95%-CI], NET mediated [3H]MPP+ release
NET, sequence (P23975 whole entry, the tested form may be a part): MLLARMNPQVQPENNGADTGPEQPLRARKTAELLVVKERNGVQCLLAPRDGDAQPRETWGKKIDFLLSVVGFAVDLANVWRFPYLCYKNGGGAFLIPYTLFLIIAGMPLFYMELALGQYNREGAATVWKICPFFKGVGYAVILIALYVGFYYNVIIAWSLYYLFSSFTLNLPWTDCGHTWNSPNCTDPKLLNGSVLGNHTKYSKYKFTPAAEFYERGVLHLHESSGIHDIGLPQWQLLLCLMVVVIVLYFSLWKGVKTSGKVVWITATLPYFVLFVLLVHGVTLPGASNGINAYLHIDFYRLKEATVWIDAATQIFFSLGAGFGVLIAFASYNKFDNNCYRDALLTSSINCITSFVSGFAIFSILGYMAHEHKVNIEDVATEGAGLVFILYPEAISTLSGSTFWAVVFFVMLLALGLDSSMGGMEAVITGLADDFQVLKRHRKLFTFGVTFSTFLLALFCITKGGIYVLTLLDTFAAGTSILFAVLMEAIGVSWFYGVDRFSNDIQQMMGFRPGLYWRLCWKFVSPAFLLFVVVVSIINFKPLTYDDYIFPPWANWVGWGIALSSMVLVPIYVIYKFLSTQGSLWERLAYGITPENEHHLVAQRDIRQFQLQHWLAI

male Swiss CD-1 mice [2] = experiment: Open field test (thigmotaxis); assay type: in vivo; details: 10 mg/kg i.p., vs saline
Method: Male Swiss CD-1 mice (Janvier, Le Genest, France), weighing 30–35 g and aged 6–8 weeks, were used for HLA, thigmotaxis, CPP, and core body temperature experiments. Animals were housed under temperature-controlled conditions (22 ± 1 °C) with a 12 h light/dark cycle and had free access to food and water (standard laboratory diet, Panlab SL, Barcelona, Spain). Doses for HLA, thigmotaxis, CPP, and core body temperature experiments were calculated based on the free base form of each compound. […] Doses for HTR experiments were calculated based on the respective salt forms of the compounds.
A habituation phase was performed to reduce the stress and novelty associated with handling and injection. […] On the test day, their horizontal locomotor activity (HLA) was measured. […] HLA was video monitored for 2 h, and a specific tracking software (Smart 3.0 Panlab, Barcelona, Spain) was used to measure their total traveled distance (in cm). Center Versus Periphery: The thigmotactic effects of the test compounds, widely considered as anxiety-like effects, were assessed through an OF test. […] The time spent, in seconds, in the center (8 × 8 cm) or the periphery of the arena was monitored for 2 h (Smart 3.0 Panlab, Barcelona, Spain).

male Swiss CD-1 mice [3] = experiment: Core body temperature; assay type: in vivo; details: 10 mg/kg i.p., 22 ± 1 °C and 28 ± 1 °C, compared with MDMA and SDMA
Method: (§1) Male Swiss CD-1 mice (Janvier, Le Genest, France), weighing 30–35 g and aged 6–8 weeks, were used for HLA, thigmotaxis, CPP, and core body temperature experiments. Animals were housed under temperature-controlled conditions (22 ± 1 °C) with a 12 h light/dark cycle and had free access to food and water (standard laboratory diet, Panlab SL, Barcelona, Spain). Doses for HLA, thigmotaxis, CPP, and core body temperature experiments were calculated based on the free base form of each compound. For HTR experiments, male C57BL/6J mice (6–8 weeks old) were obtained from Jackson Laboratories (Bar Harbor, ME, USA) and housed up to four per cage with a reversed light-cycle (lights on at 1900 h, off at 0700 h). Food and water were provided ad libitum, except during behavioral testing. Testing was conducted between 1000 and 1830 h. Doses for HTR experiments were calculated based on the respective salt forms of the compounds.
Changes in body temperature were measured by means of subcutaneously implanted temperature transponders (IPTT-300; Bio Medic Data Systems, Inc., DE, USA). Seven mice were used per group. […] Subsequently, core body temperature measures were taken for 1 h, every 10 min before administration, using a DAS-8007 Wireless Reader System (Bio Medic Data Systems, Inc.), to establish a baseline. […]

SERT [4] = target: T2, SERT (Homo sapiens, UniProt P31645); experiment: Release (superfusion) assay, SERT mediated [3H]5-HT efflux; details: for Emax: read-out: Emax [95%-CI], SERT mediated [3H]5-HT efflux
T2 sequence (P31645 whole entry, the tested form may be a part): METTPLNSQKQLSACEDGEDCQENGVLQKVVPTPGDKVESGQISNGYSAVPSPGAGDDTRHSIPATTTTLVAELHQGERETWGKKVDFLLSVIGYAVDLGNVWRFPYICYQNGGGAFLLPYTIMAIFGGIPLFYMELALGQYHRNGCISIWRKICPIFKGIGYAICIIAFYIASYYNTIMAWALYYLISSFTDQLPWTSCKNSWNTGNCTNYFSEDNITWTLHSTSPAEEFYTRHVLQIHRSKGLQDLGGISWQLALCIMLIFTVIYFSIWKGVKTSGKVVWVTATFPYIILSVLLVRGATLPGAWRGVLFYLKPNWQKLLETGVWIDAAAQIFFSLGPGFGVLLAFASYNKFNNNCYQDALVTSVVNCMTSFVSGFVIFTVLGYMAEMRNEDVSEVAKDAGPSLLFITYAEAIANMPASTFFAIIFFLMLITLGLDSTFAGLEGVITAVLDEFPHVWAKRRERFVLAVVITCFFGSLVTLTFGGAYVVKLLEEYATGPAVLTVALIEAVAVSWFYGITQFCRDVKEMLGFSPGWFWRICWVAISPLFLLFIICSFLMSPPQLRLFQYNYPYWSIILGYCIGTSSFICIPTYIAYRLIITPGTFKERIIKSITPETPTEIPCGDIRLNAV

male C57BL/6J mice = experiment: Head-twitch response (HTR); assay type: in vivo; details: IP, 30 min, doses based on the salt form
Method: as §1
The HTR was assessed using a head-mounted magnet and a magnetometer detection coil. Mice were anesthetized, a small incision was made in the scalp, and a small neodymium magnet was attached to the dorsal surface of the cranium by using dental cement. Following a two week recovery period, HTR experiments were carried out in a well-lit room with at least 7 days between sessions to avoid carryover effects. Mice (N = 4–7/group) received intraperitoneal (IP) injections of vehicle (saline) or test drug (5 mL/kg injection volume), and then activity was recorded in a glass cylinder surrounded by a magnetometer coil for 30 min. Doses for HTR experiments were calculated based on the respective salt forms of the compounds. Coil voltage was low-pass filtered (1 kHz cutoff frequency), amplified, digitized (20 kHz sampling rate, 16-bit ADC resolution), and saved to disk using a Powerlab 8/35 data acquisition system with LabChart software (ver. 8.1 ADInstruments, Colorado Springs, CO, USA). To detect head twitches, events in the recordings were transformed to scalograms, deep features were extracted using the deep convolutional neural network ResNet-50, and then the images were classified using a support vector machine (SVM). Head twitch counts were analyzed using one-way ANOVA. Posthoc comparisons were made using Dunnett’s test.

SERT [5] = target: T2, SERT; experiment: Uptake inhibition assay, [3H]5-HT uptake in HEK293 cells; assay type: cell-based; design: expressed in transfected cells
male Swiss CD-1 mice [6] = experiment: Horizontal locomotor activity (HLA); assay type: in vivo; details: for effect on horizontal locomotor activity: 2.5, 10, 25 mg/kg i.p., 120 min, ceiling effect at 25 mg/kg
Method: as §1
A habituation phase was performed to reduce the stress and novelty associated with handling and injection. During this phase, which lasted for two consecutive days, mice received an intraperitoneal (ip) saline injection and were immediately placed into a black Plexiglas Open Field (OF) arena (25 × 25 × 40 cm) under low-light conditions and white noise for 30 min. On the test day, their horizontal locomotor activity (HLA) was measured. […] HLA was video monitored for 2 h, and a specific tracking software (Smart 3.0 Panlab, Barcelona, Spain) was used to measure their total traveled distance (in cm). Center Versus Periphery: The thigmotactic effects of the test compounds, widely considered as anxiety-like effects, were assessed through an OF test. Each mouse was individually placed in the center of an open-field arena (25 cm length × 25 cm width × 40 cm height). The time spent, in seconds, in the center (8 × 8 cm) or the periphery of the arena was monitored for 2 h (Smart 3.0 Panlab, Barcelona, Spain).

5-HT2B = target: T3, 5-HT2B (Homo sapiens, UniProt P41595); experiment: Gq dissociation BRET assay in HEK293T cells; assay type: cell-based; details: for EC50: Gq dissociation BRET, read-out: EC50 5-HT2B; for Emax: HEK-293T, read-out: Emax ± SEM, %5-HT response 5-HT2B
T3 construct: expressed in transfected cells; host or cells: HEK293T (ATCC; RRID:CVCL_0063), transient transfection
T3 sequence (P41595 whole entry): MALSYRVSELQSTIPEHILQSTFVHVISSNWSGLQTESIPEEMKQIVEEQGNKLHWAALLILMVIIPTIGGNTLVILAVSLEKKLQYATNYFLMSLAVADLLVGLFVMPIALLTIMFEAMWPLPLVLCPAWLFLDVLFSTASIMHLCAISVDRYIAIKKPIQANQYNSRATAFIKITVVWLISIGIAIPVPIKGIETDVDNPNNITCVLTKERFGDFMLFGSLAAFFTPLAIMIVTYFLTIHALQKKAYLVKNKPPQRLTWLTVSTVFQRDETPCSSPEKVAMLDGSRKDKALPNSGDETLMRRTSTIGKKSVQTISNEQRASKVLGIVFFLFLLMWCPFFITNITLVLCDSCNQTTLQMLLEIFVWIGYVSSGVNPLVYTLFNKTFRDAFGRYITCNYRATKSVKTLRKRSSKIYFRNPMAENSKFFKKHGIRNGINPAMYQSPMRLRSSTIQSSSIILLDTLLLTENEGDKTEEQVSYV

| SMILES | CLint scaled at 0.5 μM [1] | half-life at 0.5 μM [1] | microsomal CLint at 0.5 μM [1] | clearance classification [1] | Emax ± SEM, %5-HT response 5-HT2A (5-HT2A) | EC50 (5-HT2A; read-out: EC50 5-HT2A) | type of releaser at DAT (DAT) | DAT/SERT ratio (EC50) (DAT) | EC50 (NET) | type of releaser at NET (NET) | Emax (NET) | EC50 (SERT [4]) | type of releaser at SERT (SERT [4]) | Emax (SERT [4]) | HTR counts (male C57BL/6J mice) | IC50 (SERT [5]) | effect on horizontal locomotor activity (male Swiss CD-1 mice [6]) | EC50 (5-HT2B) | Emax (5-HT2B) | further results |
| --- | --- | --- | --- | --- | --- | --- | --- | --- | --- | --- | --- | --- | --- | --- | --- | --- | --- | --- | --- | --- |
| CC(N)Cc1ccc2c(c1)SCO2 (stereo not shown) [SDA, 1-(1,3-benzoxathiol-5-yl)propan-2-amine] | 9.7 mL/min/kg | 1.02 h | 11.4 µL/min/mg | low clearance compounds | 92.4 ± 2.0% | 340 nM | partial releasers | 0.66 | 150 nM | full releasers | 99.6% | 270 nM | partial releasers | 70.5% | dose-related increase in HTR counts peaking at 3 mg/kg | 3090 ± 680 nM | induced hyperlocomotion | 41.5 nM | 88.2 ± 3.7% | EC50 (5-HT2A; read-out: pEC50 ± SEM 5-HT2A (converted)): 302 nM; time spent in the center of the arena (thigmotaxis) (male Swiss CD-1 mice [2]): significantly decreased the time spent in the center of the arena; core body temperature changes (male Swiss CD-1 mice [3]): significantly increased and prolonged core temperature changes; efficacy at inducing locomotion, in comparison to SDMA and MDMA (male Swiss CD-1 mice [6]; 10 mg/kg i.p.): significantly higher efficacy |
| CNC(C)Cc1ccc2c(c1)SCO2 (stereo not shown) [SDMA, 1-(1,3-benzoxathiol-5-yl)-N-methylpropan-2-amine] | 8.4 mL/min/kg | 1.18 h | 9.8 µL/min/mg | low clearance compounds | 68.2 ± 1.8% | 1400 nM | partial releasers | 0.37 | 360 nM | full releasers | 104% | 180 nM | partial releasers | 71.5% | Neither MDMA nor SDMA induced an appreciable increase in HTR counts | 4000 ± 870 nM | induced hyperlocomotion | 357 nM | 70 ± 3.4% | Emax (5-HT2A; HEK-293T, read-out: Emax ± SEM, %5-HT response 5-HT2A, Gq dissociation BRET, relative to 5-HT): < 70% |
